In patent US11072635B2, “Macrocyclic broad spectrum antibiotics” (priority 2015, dated 2021):
≈ marks a conversion by molar mass, not a printed value. Read-outs that look alike come from different tables or passages of the source.

How the values were obtained:
[1] = system: Escherichia coli MC4100 harboring the IMP4213 (E. coli IMP); experiment: microbe, parasite or virus in culture; type: cell-based; conditions: 22 h, read-out: MIC (μg/mL) E. coli IMP
Procedure: (§1) In vitro antimicrobial activity of each compound was determined by measuring minimal inhibitor concentrations (MICs) using the broth micro-dilution technique as approved by the Clinical and Laboratory Standards Institute (CLSI) (Methods for Dilution Antimicrobial Susceptibility Tests for Bacteria that Grow Aerobically; Approved Standard—Eighth Edition. CLSI document M07-A8. Wayne, Pa.: Clinical and Laboratory Standards; 2009). Antibacterial activity was measure against three strains of bacteria: a Methicillin Resistant Staphylococcus aureus strain USA 300, NRS384 (S. aureus); a strain of Escherichia coli MC4100 harboring the IMP4213 (E. coli IMP), which results in increased outer-membrane permeability (B Martin and Silhavy T. Imp/OstA is required for cell envelope biogenesis in Escherichia coli. (2002) Molecular Microbiology, 45(5), 1289-1302), and Escherichia coli ATCC 25922 (E. coli), a clinically relevant Gram-negative strain. Cells were inoculated onto plates of Trypyticase Soy Agar or Luria Agar respectively and grown at 35° C. for 20 hours. Inocula suspensions were prepared by scraping cells into 1 mL of testing media (cation adjusted Mueller Hinton Broth supplemented with 0.002% v/v Tween-80) and diluting to a final OD600 nm of 0.01.
(§2) Test compounds were prepared in DMSO at a concentration of 10 mg/mL. […] In protocol 2, the compound stocks were diluted into testing media at a concentration of 4 μg/mL and serial 2-fold dilutions were made in the same media, in 96-well U bottom microtiter dishes, for a total of 10 compound concentrations. In protocol 3, compound stocks were diluted into testing media at a concentration of 0.5 μg/mL, with serial 2-fold dilutions conducted as described above. […] Inocula suspensions were added to the 2-fold serial dilutions of test compounds to a final density of OD OD600 nm of 0.0005 and incubated at 35° C. for 22 hours.

[2] = system: Methicillin Resistant Staphylococcus aureus strain USA 300, NRS384 (S. aureus); experiment: Minimum inhibitory concentration, broth micro-dilution (CLSI); type: cell-based
Procedure: as §1, §2

[3] = system: Escherichia coli ATCC 25922 (E. coli); experiment: as above; type: cell-based; conditions: read-out: MIC (μg/mL) E. coli
Procedure: Cells were inoculated onto plates of Trypyticase Soy Agar or Luria Agar respectively and grown at 35° C. for 20 hours. Inocula suspensions were prepared by scraping cells into 1 mL of testing media (cation adjusted Mueller Hinton Broth supplemented with 0.002% v/v Tween-80) and diluting to a final OD600 nm of 0.01.
as §2

[4] = molecular target: T1, SpsB (Staphylococcus aureus signal peptidase) (Staphylococcus aureus, UniProt P0A070); experiment: Whole-cell SpsB biochemical screening assay (kinetic fluorogenic enzyme activity)
T1 construct: a suspension of Staphylococcus aureus cells as a source of SpsB instead of recombinant SpsB protein; endogenous in cells; host or cells: S. aureus, USA300 background, overexpressing SpsB (whole-cell suspension)
T1 sequence (P0A070 whole entry): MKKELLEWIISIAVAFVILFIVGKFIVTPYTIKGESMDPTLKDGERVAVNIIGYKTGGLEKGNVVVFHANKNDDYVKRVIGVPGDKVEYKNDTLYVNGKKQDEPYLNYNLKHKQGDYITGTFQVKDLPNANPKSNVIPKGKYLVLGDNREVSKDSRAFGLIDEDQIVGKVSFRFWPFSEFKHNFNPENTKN
Procedure: A kinetic fluorogenic enzyme activity assay was used to assess inhibition of SpsB (Staphylococcus aureus signal peptidase) activity and IC50s were determined. This assay uses a suspension of Staphylococcus aureus cells as a source of SpsB instead of recombinant SpsB protein.
Cell preparation: Luria broth (LB) was inoculated with S. aureus (USA300 background, overexpressing SpsB) and shaken at 37° C. until an OD600 nm of 1.5-2.0 was reached (˜4 hr). The culture was then diluted to an OD600 nm of 1.0 with LB, aliquoted and centrifuged at 10,000×g for 2 mins. The supernatant was removed and the pellet was resuspended in phosphate buffer (1×PBS, 12.5 mg/L MgCl2, 25 mg/L CaCl2, 0.1% Tween-80) to an OD600 nm of 0.5, then centrifuged again at 10,000×g for 2 mins. The supernatant was removed and the pellets were frozen at −20° C.
Test compounds were prepared in DMSO at a concentration of 10 mg/mL. These compound stocks were diluted into DMSO to a concentration of 25 μg/mL and serial 3-fold dilutions were made in DMSO, for a total of 11 compound concentrations. 20 nL of each compound solution was pre-spotted into a white 384-well plate (50 μL/well polypropylene, Nunc) using acoustic fluid transfer (Echo).
Frozen S. aureus pellets were resuspended in assay buffer (1×PBS, 12.5 mg/L MgCl2, 25 mg/L CaCl2, 0.1% Tween-80) to an OD600 nm of 0.05, then mixed 1:1 (v/v) with 20 μM substrate ((Dabcyl)βAla-KPAKAAE(Edans)) in assay buffer, and this solution was added (20 μL/well) to the 384-well plate that had been pre-spotted with compound. Fluorescence intensity was then immediately read kinetically for 30 minutes with 2 minute read intervals to monitor cleavage of the internally quenched peptide substrate (excitation wavelength=340 nm, emission wavelength=490 nm, Molecular Devices Spectramax M5). Reaction rate (slope) was plotted against inhibitor concentration to derive the IC50.

[5] = MRSA / NRS 384 / USA300, MRSA USA 300, NRS384, 35° C., 22 hours, cation adjusted Mueller Hinton Broth with 0.002% Tween-80, read-out: MIC (μg/mL) S. aureus
[6] = ATCC25922, E. coli ATCC 25922, 35° C., 22 hours
[7] = MRSA / NRS 384 / USA300, 22 h, read-out: MIC (μg/mL) S. aureus

Structure (SMILES)	MIC [1] [µg/mL]	MIC [2, 5] [µg/mL]	MIC [3, 6] [µg/mL]	MIC [2, 7] [µg/mL]	MIC ([3]; ATCC25922, 22 h) [µg/mL]	IC50 [4] [nM]
CCCCCCCc1ccc(C(=O)N[C@@H](CCN)C(=O)N(C)[C@@H]2C(=O)N[C@@H](C)C(=O)N[C@H](C(=O)NC/C=N/N3CC(=O)NC3=O)Cc3ccc(OCCN)c(c3)-c3cc2ccc3OCCN)c(C)c1 [Compound 101]	0.031 (≈ 0.0325 µM)	0.094 (≈ 0.0985 µM)	4 (≈ 4.19 µM)			
CCCCCCCc1ccc(C(=O)N[C@@H](CCN)C(=O)N(C)[C@@H]2C(=O)N[C@@H](C)C(=O)N[C@H](C(=O)N[C@@H](C)/C=N/N3CC(=O)NC3=O)Cc3ccc(OCCN)c(c3)-c3cc2ccc3OCCN)c(C)c1 [Compound 102]	0.094 (≈ 0.0971 µM)	0.13 (≈ 0.134 µM)	8 (≈ 8.26 µM)			
CCCCCCCc1ccc(C(=O)N[C@@H](CCN)C(=O)N(C)[C@@H]2C(=O)N[C@@H](C)C(=O)N[C@H](C(=O)O)Cc3ccc(OCCN)c(c3)-c3cc2ccc3OCCN)c(C)c1 [Compound 103]	0.0078 (≈ 0.00956 µM)			0.17 (≈ 0.208 µM)	0.75 (≈ 0.919 µM)	
CCCCCCCc1ccc(C(=O)N[C@@H](CCN)C(=O)N(C)[C@@H]2C(=O)N[C@@H](C)C(=O)N[C@H](C(=O)NS(=O)(=O)CCl)Cc3ccc(OCCN)c(c3)-c3cc2ccc3OCCN)c(C)c1 [Compound 104]	0.023 (≈ 0.0248 µM)	0.75 (≈ 0.809 µM)	4 (≈ 4.31 µM)			
CCCCCCCc1ccc(C(=O)N[C@@H](CCN)C(=O)N(C)[C@@H]2C(=O)N[C@@H](C)C(=O)N[C@H](C(=O)N[C@@H](C)C(=O)NOC(C)=O)Cc3ccc(OCCN)c(c3)-c3cc2ccc3OCCN)c(C)c1 [Compound 108]	0.5 (≈ 0.53 µM)			0.75 (≈ 0.794 µM)	32 (≈ 33.9 µM)	
CCCCCCCc1ccc(C(=O)N[C@@H](CCN)C(=O)N(C)[C@@H]2C(=O)N[C@@H](C)C(=O)N[C@H](C(=O)NS(=O)(=O)O)Cc3ccc(OCCN)c(c3)-c3cc2ccc3OCCN)c(C)c1 [Compound 111]	0.063 (≈ 0.0704 µM)			0.25 (≈ 0.279 µM)	8 (≈ 8.94 µM)	
CCCCCCCCc1ccc(C(=O)N[C@@H](CCN)C(=O)N(C)[C@@H]2C(=O)N[C@@H](C)C(=O)N[C@H](C(=O)NOC)Cc3ccc(OCCN)c(c3)-c3cc2ccc3OCCN)c(C)c1 [Compound 113]	0.047 (≈ 0.0547 µM)			0.063 (≈ 0.0733 µM)	4 (≈ 4.66 µM)	1.2
CCCCCCCCc1ccc(C(=O)N[C@@H](CCN)C(=O)N(C)[C@@H]2C(=O)N[C@@H](C)C(=O)N[C@H](C(=O)NCC(=O)NCC#N)Cc3ccc(OCCN)c(c3)-c3cc2ccc3OCCN)c(C)c1 [Compound 114]	0.13 (≈ 0.141 µM)			0.5 (≈ 0.54 µM)	8 (≈ 8.65 µM)	
CCCCCCOc1ccc(C(=O)N[C@@H](CCN)C(=O)N(C)[C@@H]2C(=O)N[C@@H](C)C(=O)N[C@H](C(=O)N[C@@H](C)C(=O)c3nnn[nH]3)Cc3ccc(OCCN)c(c3)-c3cc2ccc3OCCN)c(Cl)c1 [Compound 116]	0.063 (≈ 0.0655 µM)			0.063 (≈ 0.0655 µM)	4 (≈ 4.16 µM)	
CCCCc1ccc(-c2ccc(C(=O)N[C@@H](CCCCN)C(=O)N(C)[C@@H]3C(=O)N[C@@H](C)C(=O)N[C@H](C(=O)NCCC#N)Cc4ccc(OCCN)c(c4)-c4cc3ccc4OCCN)cc2)cc1 [Compound 119]	1 (≈ 1.09 µM)		24 (≈ 26.2 µM)			71
CCCCCCCCCCCCCC(=O)N[C@@H](CCCCN)C(=O)N(C)[C@@H]1C(=O)N[C@@H](C)C(=O)N[C@H](C(=O)NCCC#N)Cc2ccc(OCCN)c(c2)-c2cc1ccc2OCCN [Compound 120]	0.5 (≈ 0.562 µM)	2 (≈ 2.25 µM)	16 (≈ 18 µM)			18
CCCCc1ccc(-c2ccc(C(=O)N[C@@H](CN)C(=O)N(C)[C@@H]3C(=O)N[C@@H](C)C(=O)N[C@H](C(=O)NC(C)=O)Cc4ccc(OCCN)c(c4)-c4cc3ccc4OCCN)cc2)cc1 [Compound 122]	0.094 (≈ 0.109 µM)			1.5 (≈ 1.74 µM)	3 (≈ 3.48 µM)	
C=C(C#N)NC(=O)[C@@H]1Cc2ccc(OCCN)c(c2)-c2cc(ccc2OCCN)[C@H](N(C)C(=O)[C@H](CCCN)NC(=O)c2ccc(-c3ccc(CCCC)cc3)cc2)C(=O)N[C@@H](C)C(=O)N1 [Compound 130]	0.13 (≈ 0.144 µM)			0.38 (≈ 0.422 µM)	6 (≈ 6.67 µM)	
CCCCc1ccc(-c2ccc(C(=O)N[C@@H](CN)C(=O)N(C)[C@@H]3C(=O)N[C@@H](C)C(=O)N[C@H](c4nsc(=O)[nH]4)Cc4ccc(OCCN)c(c4)-c4cc3ccc4OCCN)cc2)cc1 [Compound 132]	0.25 (≈ 0.285 µM)			4 (≈ 4.56 µM)	8 (≈ 9.11 µM)	
CCCCc1ccc(-c2ccc(C(=O)N[C@@H](CCCN)C(=O)N(C)[C@@H]3C(=O)N[C@@H](C)C(=O)N[C@H](c4nccc(=O)[nH]4)Cc4ccc(OCCN)c(c4)-c4cc3ccc4OCCN)cc2)cc1 [Compound 135]	1.5 (≈ 1.67 µM)			> 4	32 (≈ 35.6 µM)	
CCCCc1ccc(-c2ccc(C(=O)N[C@@H](CCCN)C(=O)N(C)[C@@H]3C(=O)N[C@@H](C)C(=O)N[C@H](/C=C/C#N)Cc4ccc(OCCN)c(c4)-c4cc3ccc4OCCN)cc2)cc1 [Compound 138]	0.5 (≈ 0.583 µM)			4 (≈ 4.67 µM)	16 (≈ 18.7 µM)	
C=CC(=O)N(C)NC(=O)[C@@H]1Cc2ccc(OCCN)c(c2)-c2cc(ccc2OCCN)[C@H](N(C)C(=O)[C@H](CCN)NC(=O)c2ccc(CCCC)cc2C)C(=O)N[C@@H](C)C(=O)N1 [Compound 144]	2 (≈ 2.34 µM)	> 4	64 (≈ 74.8 µM)			
C[C@@H]1NC(=O)[C@@H](N(C)C(=O)[C@H](CCCCN)NC(=O)c2ccc(-c3ccc(Cl)cc3)cc2)c2ccc(O)c(c2)-c2cc(ccc2O)C[C@@H](C(=O)NN(C)C(=O)CCl)NC1=O [Compound 145]	4 (≈ 4.65 µM)			2 (≈ 2.32 µM)	> 64	
CCCCCCc1ccc(C(=O)N[C@@H](CCN)C(=O)N(C)[C@@H]2C(=O)N[C@@H](C)C(=O)N[C@H](C(=O)O)Cc3ccc(O)c(c3)-c3cc2ccc3O)c(C)c1 [Compound 146]	0.75 (≈ 1.05 µM)			> 4	> 64	
CCCCCCCc1ccc(C(=O)N[C@@H](CCN)C(=O)N(C)[C@@H]2C(=O)N[C@@H](C)C(=O)N[C@H](C(=O)N[C@@H](C)C(=O)Oc3ccccc3)Cc3ccc(OCCN)c(c3)-c3cc2ccc3OCCN)c(C)c1 [Compound 148]		0.5 (≈ 0.519 µM)	15.8 (≈ 16.5 µM)			
CCCCCCCc1ccc(C(=O)N[C@@H](CCN)C(=O)N(C)[C@@H]2C(=O)N[C@@H](C)C(=O)N[C@H](C(=O)N[C@@H](C)C(=O)NOC(N)=O)Cc3ccc(OCCN)c(c3)-c3cc2ccc3OCCN)c(C)c1 [Compound 149]		0.25 (≈ 0.265 µM)	16.1 (≈ 17.1 µM)			
CCCCCCCc1ccc(C(=O)N[C@@H](CCN)C(=O)N(C)[C@@H]2C(=O)N[C@@H](C3CC3)C(=O)N[C@H](C(=O)N[C@@H](C)C(C)=O)Cc3ccc(OCCN)c(c3)-c3cc2ccc3OCCN)c(C)c1 [Compound 150]		0.068 (≈ 0.0746 µM)	4.39 (≈ 4.82 µM)			
